The source of these data is paper PMC8518391, “Synthesis and Biological Evaluation of Dantrolene‐Like Hydrazide and Hydrazone Analogues as Multitarget Agents for Neurodegenerative Diseases” (Chemmedchem, 2021).

Data set [1] can be described thus: Hydrolytic stability in buffered solution (PBS pH 7.4, 37 °C). The format is physicochemical. The following applies: 20 μM in 10 mM PBS pH 7.4, 37 °C, 6 h incubation. The procedure: The hydrolytic stability of some representative imino/hydrazone/hydrazide derivatives was determined in buffered aqueous media. […]. […]. The hydrolytic degradation of 9 in its starting reagents was confirmed by the comparison of the chromatograms of 9 and 2‐chloro‐4‐hydroxyaniline, obtained in the same chromatographic conditions (Figure 6B).
Stability studies in buffered solution were performed following an already described procedure,[23] on a Phenomenex C18 column (150×4.6 mm i.d., 3 μm particle size; Phenomenex, Castel Maggiore, Italy) using a mobile phase consisting of a mixture of methanol‐water (75 : 25 v/v, with aqueous formic acid 0.1 %). The used flow rate was 0.500 mL/min while the injection volume was 20 μL. Wavelength of UV‐Vis detector was adjusted at 254 nm. The chemical stability was evaluated in a phosphate buffer solution pH 7.4 (10 mM HPO4 ^2−/H2PO4 ^−; 100 mM NaCl) at 37 °C. Five different concentrations from 0.5 μM to 20 μM were studied in a 2 h time range (data not shown). Each concentration (0.5, 1, 5, 10 and 20 μM) was tested in triplicate starting from 3 different stocks solution (1 mM) prepared separately. The time range was extended to 6 h only for the samples at 20 μM concentration (Figure 6a).

Data set [2] deals with T1, hMAO A (Homo sapiens, UniProt P21397).
T1 construct: purchased Sigma Aldrich
T1 sequence (P21397 1-527): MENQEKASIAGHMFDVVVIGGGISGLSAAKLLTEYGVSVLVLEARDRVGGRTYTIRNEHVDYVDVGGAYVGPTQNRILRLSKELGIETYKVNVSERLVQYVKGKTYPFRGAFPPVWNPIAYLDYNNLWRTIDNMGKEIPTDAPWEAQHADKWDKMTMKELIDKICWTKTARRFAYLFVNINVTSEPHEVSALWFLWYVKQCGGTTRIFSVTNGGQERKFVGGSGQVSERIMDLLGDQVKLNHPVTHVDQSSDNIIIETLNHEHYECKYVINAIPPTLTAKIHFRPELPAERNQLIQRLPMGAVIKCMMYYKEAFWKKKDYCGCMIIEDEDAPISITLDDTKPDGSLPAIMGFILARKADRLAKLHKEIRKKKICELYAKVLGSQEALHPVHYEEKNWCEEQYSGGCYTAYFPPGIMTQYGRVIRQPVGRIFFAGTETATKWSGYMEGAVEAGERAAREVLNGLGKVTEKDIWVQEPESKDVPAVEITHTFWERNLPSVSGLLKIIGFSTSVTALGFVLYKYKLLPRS
The data set can be described thus: biochemical. The source says:
(§1) Readings were made with Infinite M1000 Pro plate reader (Tecan, Cernusco s.N., Italy) and statistical regressions with Prism software (GraphPad Prism version 5.00 for Windows, GraphPad Software, San Diego, CA, USA).

Data set [3] deals with T2, hAChE (Homo sapiens, UniProt P22303).
T2 construct: purchased Sigma Aldrich
The data set can be described thus: biochemical. The conditions noted are these: read-out: % inhibition at 10 μM hAChE.
Excerpt: as §1

Data set [4] has as its target T3, hMAO B (Homo sapiens, UniProt P27338).
T3 construct: purchased Sigma Aldrich
T3 sequence (P27338 1-520): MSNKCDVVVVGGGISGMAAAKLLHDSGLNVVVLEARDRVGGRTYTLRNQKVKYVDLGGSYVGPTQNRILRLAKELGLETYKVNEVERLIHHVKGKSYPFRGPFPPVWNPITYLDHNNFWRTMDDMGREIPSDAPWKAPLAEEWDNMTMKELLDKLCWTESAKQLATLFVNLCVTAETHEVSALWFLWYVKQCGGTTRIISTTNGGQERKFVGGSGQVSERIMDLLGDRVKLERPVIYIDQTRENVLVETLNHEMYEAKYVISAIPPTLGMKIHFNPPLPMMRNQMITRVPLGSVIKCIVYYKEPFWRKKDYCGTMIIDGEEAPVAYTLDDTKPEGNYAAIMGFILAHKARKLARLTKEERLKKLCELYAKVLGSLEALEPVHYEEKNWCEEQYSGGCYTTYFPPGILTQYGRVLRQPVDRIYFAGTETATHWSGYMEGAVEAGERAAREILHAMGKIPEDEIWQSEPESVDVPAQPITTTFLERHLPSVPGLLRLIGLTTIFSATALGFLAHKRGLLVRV
The data set can be described thus: biochemical. It is filed as biochemical.

A short description of data set [5]: RP-HPLC lipophilicity index log k’. It is filed as physicochemical. The following applies: MeOH/phosphate buffer pH 7.4; methanol/PBS 60:40 v/v. The source says:
To investigate a possible correlation between MAO inhibitory potency and lipophilicity,[7] we calculated log P with three different programs (ChemDraw 15.0; ALOG PS 2.1; ChemSketch 2017, see Table S1 in Supporting Information) and compared the calculated values with experimental lipophilicity indexes as assessed by reversed‐phase (RP) HPLC in isocratic conditions for the majority of compounds. The log of capacity factors (log k’) measured by RP‐HPLC using a mixture of methanol/PBS (60 : 40, v/v) as the mobile phase are reported in Tables 1 and 2, along with Clog P values calculated with ChemDraw. These calculated lipophilicity descriptors correlated with the experimental log k’ values (n=13, r ^2=0.901) better than the other log Ps calculated by ALOG PS and ChemSketch computational tools (r ^2 equal 0.705 and 0.568, respectively). As shown by the scatter plots in Figure 4 and Figure S1 in Supporting Information, there is no evident correlation trend between MAO A/B inhibition data and lipophilicity calculated by the expert system implemented in ChemDraw for compounds achieving finite IC50 values.
Log k’ values (k’=(tr‐t0)/t0) and purity determinations were carried out using a Phenomenex Gemini C18 4.6×150 mm, with 3 μm size particles, built on a Waters double pump HPLC system in isocratic conditions. Injection volumes were 10 μL, flow rate was 0.5 mL/min, and detection was performed with UV (λ=254 and 370 nm). Samples were prepared by dissolving 0.1 mg/mL of the solute in 10 % v/v DMSO and 90 % v/v methanol. Retention times (tr) were measured at least from three separate injections, and dead time (t0) was the retention time of deuterated methanol. The mobile phase was filtered through a Supelco Nylon‐66 membrane 0.45 μm (Merck Life Science Srl, Milan, Italy) before use. For each reference compound, the average tr of three consecutive injections of 10 μL of sample was used to calculate the log k’ values. The eluent consisted of five different mixtures of methanol and PBS buffer 10 mM at pH 7.4, with methanol/buffer ratios ranging from 80 : 20 to 60 : 40 v/v.

Data set [6] has as its target T3, hMAO B. Also noted: method as in PMID 31775359. The conditions noted are these: cited from earlier work.
For data set [7], the system named is SH-SY5Y cells. The data set can be described thus: DCF-DA assay of ROS production induced by dopamine in SH-SY5Y cells. The following applies: 10 nM dopamine + 10 nM compound. It is filed as cell-based, human. The procedure:
The immortalized neuroblastoma cells are a widely used model for neuroprotection assays, while dopamine at a concentration of 10 nM acts as an inducer of oxidative stress,[8, 9] being metabolized by MAOs to form hydrogen peroxide. Once hydrolyzed and oxidized, DCF acts as the fluorescing probe of the oxidative stress (OS) state of cells. In the presence of an antioxidant, or even of a MAO inhibitor, ROS burden is lowered and DCF fluorescence decreased. […] Its activity is superimposable to that of phenelzine, a nonselective MAO inhibitor used as a positive control in this test.[10] The same experiment performed on dantrolene in our previous work gave similar results.[1]
Reagents for cell cultures were purchased from Life Technologies (ThermoFisher Scientific, Waltham, MA, USA) unless otherwise stated. […]
ROS production in SH‐SY5Y cell line was detected using Cellular Reactive Oxygen Species Detection Assay Kit ab186027 (Abcam, Cambridge, UK), as previously described.[1] […] After incubation and washing, DCF‐DA was added, the plate was incubated, washed again with PBS, and the fluorescence read every 15 min in a 60 min time interval at 535 nm (excitation at 485 nm) using the Tecan Infinite M1000 Pro plate reader.

T2 sequence (P22303 32-614): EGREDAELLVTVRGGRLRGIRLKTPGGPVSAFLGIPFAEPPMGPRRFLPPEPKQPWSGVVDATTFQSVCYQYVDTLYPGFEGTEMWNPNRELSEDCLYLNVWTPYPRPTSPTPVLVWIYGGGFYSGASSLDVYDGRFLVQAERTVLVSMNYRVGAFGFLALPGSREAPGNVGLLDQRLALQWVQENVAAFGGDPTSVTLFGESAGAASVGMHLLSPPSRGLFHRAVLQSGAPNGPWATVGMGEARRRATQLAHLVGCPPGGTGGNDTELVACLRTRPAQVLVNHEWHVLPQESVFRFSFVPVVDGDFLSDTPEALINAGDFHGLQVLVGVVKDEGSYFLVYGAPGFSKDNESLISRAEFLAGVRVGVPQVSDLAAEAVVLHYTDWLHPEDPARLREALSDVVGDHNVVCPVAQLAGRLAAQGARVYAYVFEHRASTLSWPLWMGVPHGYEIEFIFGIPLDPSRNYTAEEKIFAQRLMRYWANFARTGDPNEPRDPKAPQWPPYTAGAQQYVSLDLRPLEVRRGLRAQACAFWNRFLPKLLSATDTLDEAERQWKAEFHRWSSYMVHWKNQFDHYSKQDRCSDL

Take `CN1CCN(N=Cc2ccc(-c3ccc([N+](=O)[O-])cc3)o2)CC1` [Compound 3, N ‐(4‐methylpiperazin‐1‐yl)‐1‐(5‐(4‐nitrophenyl)furan‐2‐yl)methanimine]: the “hydrolytic stability” value in data set [1] is “substantial stability”. Further, the IC50 worked out at 5.61 ± 1.11 µM in data set [2] and 3.15 ± 0.03 µM in data set [4]. Also, the inhibition at 10 µM in data set [3] came to 44%. The “log k’ (logarithm of capacity factor, RP-HPLC)” value (from here on “log k’”) in data set [5] was determined as 0.752.
Turning to `O=C1CN(/N=C/c2ccc(-c3ccc([N+](=O)[O-])cc3)o2)C(O)=N1` [DAN, Dantrolene], the “Ki human MAO B” value in data set [6] was “low micromolar range”. Further, the “log k’” value in data set [5] is reported as 0.115.
In data set [1], `N#Cc1ccc(-c2ccc(/C=N/c3ccc(O)cc3Cl)o2)cc1` [Compound 9] had a degradation percentage of 76%. The IC50 amounted to 3.46 ± 0.25 µM in data set [2] and 0.68 ± 0.05 µM in data set [4]. Further, the inhibition at 10 µM in data set [3] turned out to be 30%. The “reduction of ROS oxidation of DCF” value in data set [7] is “effective in reducing ROS oxidation of DCF”. In addition, the “mechanism of hMAO B inhibition” value in data set [4] (Michaelis-Menten / Lineweaver-Burk) is “competitive”. In data set [4] (from IC50 values), the “selectivity for MAO B over MAO A” value came out at 5 fold. Moreover, the Ki in data set [4] (inhibition kinetics without preincubation, kynuramine substrate) was determined as 0.5 ± 0.06 µM. Further, the “log k’” value in data set [5] worked out at 0.782.
